Experimental data published in patent publication US20120270860A1, “METHODS FOR TREATING OR PREVENTING ALCOHOL-RELATED DISORDERS OR CRAVING-RELATED DISORDERS” (priority 2011, published 2012).

How the values were obtained:
[1] = system: patients with alcohol dependence; test: Case reports: alcohol consumption and alcohol-related symptoms; type: in vivo, human; set-up: AST / ALT: unit not given here
[2] = system: cysteine/glutamate exchange; details: preclinical studies; cited from earlier work
[3] = system: alcohol-dependent individuals; test: Randomized, double-blind, placebo-controlled trial for treating alcohol dependence: safety; type: in vivo, human; details: N-acetylcysteine up to 3600 mg/day, 8-week treatment
Description: (§1) Alcohol-dependent individuals were recruited for participation in a randomized, double-blind, placebo-controlled trial for treating alcohol dependence. To evaluate the safety and efficacy of N-acetylcysteine, 2 groups (N-acetylcysteine 3600 mg/day and placebo) were compared. The total study duration was 9 weeks which included a 1-week screening period and an 8-week randomized study drug treatment period. Subjects were randomized to one of two groups (Table 1) and were evaluated weekly.
(§2) Of 46 subjects, 44 subjects who took at least one study medication were included in analysis. Data analyses were conducted on an intention-to-treat sample using the linear mixed effects model introduced by Laird and Ware (Laird, N. M. & J. H. Ware. 1982. “Random-Effects Models for Longitudinal Data.” Biometrics 38:963-974). Outcome variables were measured over nine consecutive weeks. The covariates were Alcoholics Anonymous attendance and baseline alcohol craving. All the P-values reported are 2-tailed. Significance level was set at p<0.05.

[4] = system: alcohol-dependent individuals; test: Alcohol craving by Penn Alcohol Craving Scale (PACS) during the trial; type: in vivo, human
Description: as §1, §2
During the trial described in Example 1, alcohol craving was measured weekly by the Penn Alcohol Craving Scale (PACS)(Flannery B. A., et al., Psychometric properties of the Penn Alcohol Craving Scale. Alcohol, Clin. Exp. Res. 1999, 23(8), 1289-95). The PACS is a 5-item self-rated scale designed to assess alcohol craving severity (frequency, intensity, duration, resistance, and overall craving) during the preceding 1 week. Each item has a score range of 0-6 (maximum total craving score=30).

[5] = in vivo; cited from earlier work
[6] = Liver function tests (plasma AST, ALT, GGT) during the trial; type: in vivo, human; set-up: AST / ALT / GGT: unit not given here; details: for ALT / AST / GGT: plasma
Description: as §1
The effect of N-acetylcysteine on liver functions was measured during the trial described in Example 1. Liver functions were assessed by measuring changes in plasma aspartate aminotransferase (AST), alanine aminotransferase (ALT) and γ-glutamyl transferase (GGT) levels three times during the study (week 0, week 5 and week 9).

[7] = Case report: sexual cravings and hypersexual behaviors; type: in vivo, human; details: for hypersexual symptoms: naltrexone and topiramate before N-acetylcysteine
Excerpt: They had sexual arousal even at age five to six years old. They started to masturbate several years later. Pretty soon masturbation became compulsive daily and multiple times a day. By then they had more access to pornography and internet. They would spend hours and hours on it. Their personal life was devastated. They had been in 12 step program called “Sex Addicts Anonymous” for the past 10 years in one of the largest cities in the US. Problem would repeatedly haunt them. Although they were given various antidepressants by doctors their condition had never stopped. They were treated with naltrexone and topiramate. […] Their hypersexual cravings and symptoms were gone. Currently, they are happily married and doing well at work. They are no longer taking naltrexone or topiramate. They are taking N-acetylcysteine only on an as needed basis. We have found same principles in voyeurism, exhibitionism and other sexual deviations. These patients often end up in jail yet they can't help themselves because of uncontrollable cravings.

[8] = Case reports: food cravings and compulsive overeating; type: in vivo, human
[9] = Case report: shopping cravings and compulsive shopping; type: in vivo, human; details: person, 2400-3600 mg/day, within two weeks
Description: They have had compulsive shopping behaviors for the past 20 years. They have been under severe financial stress because of their spending habits and unemployment. They had other addictive behaviors such as drinking, hoarding and overeating. Earlier, they were married, had stable job but lost everything. Various medicines such as antipsychotics and antidepressants were ineffective. On the third visit they were given N-acetylcysteine and was advised to take 2400-3600 mg/day.

[10] = in vivo; cited from earlier work; remark: listed apart in the source
[11] = system: alcohol-dependent individuals; test: Quality of Life Enjoyment and Satisfaction Questionnaire (Q-LES-Q) during the trial; type: in vivo, human; set-up: key to Q-LES-Q: 16-item Q-LES-Q, 5-point scale; higher = better health status
Description: as §1, §2
The effect of N-acetylcysteine on quality of life was measured weekly during the trial described in Example 1. The quality of life was measured by the Quality of Life Enjoyment and Satisfaction Questionnaire (Q-LES-Q).
The short form of the Q-LES-Q is a 16-item self-rated scale designed to assess quality of life, differences in the degree of enjoyment and satisfaction among groups of subjects, as well as changes over time in a single subject (Endicott J., et al., Quality of Life Enjoyment and Satisfaction Questionnaire: a new measure, Psychopharmacol. Bull., 1993, 29(2), 321-326). It is a 5-point scale, with higher scores indicating better health status. The Q-LES-Q SF has been used extensively in drug treatment trials in psychiatry and addictions and has shown good reliability and validity (Endicott J., et al., Pediatric Quality of Life Enjoyment and Satisfaction Questionnaire (PQ-LES-Q): reliability and validity. J. Am. Acad. Child Adolesc. Psychiatry, 2006, 45(4), 401-7). It assesses the following areas: physical health, mood, work, household activities, social relationships, family relationships, leisure time activities, ability to function in daily life, sexual drive, interest and/or performance, economic status, living/housing situation, ability to get around physically, ability to do work or hobbies, and overall sense of well being.

[12] = system: alcohol-dependent individuals; test: Alcohol craving by Obsessive Compulsive Drinking Scale (OCDS) during the trial; type: in vivo, human; set-up: key to OCDS: OCDS total score, 14 items scored 0-4, max 56
Description: as §1, §2
Alcohol craving was also measured weekly by the Obsessive Compulsive Drinking Scale (OCDS) (Anton R. F., et al., The obsessive compulsive drinking scale: A new method of assessing outcome in alcoholism treatment studies. Arch. Gen. Psychiatry. 1996, 53(3), 225-231; Anton R. F., et al., The Obsessive Compulsive Drinking Scale: a self-rated instrument for the quantification of thoughts about alcohol and drinking behavior, Alcohol Clin. Exp. Res., 1995, 19(1), 92-99). The OCDS is a 14-item self-rated reliable scale designed to assess obsessive and compulsive aspects of alcoholism. Each item has a score range of 0-4 (maximum total score=56). Studies of factor analysis have reported that the OCDS loads to three or four factors (OCDS: P<0.05) (Roberts. J. S., et al., Factor structure and predictive validity of the Obsessive Compulsive Drinking Scale, Alcohol Clin. Exp. Res., 1999, 23(9), 1484-1491; Bohn, M. J., et al., Psychometric properties and validity of the obsessive-compulsive drinking scale, Alcohol Clin. Exp. Res., 1996, 20(5), 817-23; Kranzler, H. R., et al., Validity of the Obsessive Compulsive Drinking Scale (OCDS): does craving predict drinking behavior?, Alcohol Clin. Exp. Res. 1999, 23(1), 108-14).

[13] = system: cocaine-dependent patients; details: cited from earlier work

## CC(=O)N[C@@H](CS)C(=O)O [N-acetylcysteine]
[1]; Case 1, after taking 900 mg
  alcohol use: able to stop drinking alcohol
[1]; Case 1, on 3600 mg
  alcohol craving: substantial reduction in their craving
[1]; Case 2, from 41, in two months while taking N-acetylcysteine
  AST: 20
[1]; Case 2, from 51, in two months while taking N-acetylcysteine
  ALT: 18
[1]; Case 2, from 1420, in two months while taking N-acetylcysteine
  GGT: 327
[1]; Case 2, soon after start
  alcohol use: able to abstain from alcohol
[1]; Case 3, at 3600 mg/day
  alcohol use: able to stop drinking alcohol completely
[1]; Case 4, 900 mg, before 12-24 beers/day
  alcohol use: 6 drinks/day
[1]; Case 4, several weeks later, 2400-3600 mg
  alcohol use: able to abstain from alcohol
[1]; Case 5, 3600 mg, before 6-12 drinks of vodka per day
  drinking consumption: reduced their drinking significantly
[1]; Case 5, at 900-2700 mg/day
  drinking consumption: about the same
[1]; numerous test subjects
  alcohol consumption and other alcohol-related symptoms: reduced alcohol consumption and other alcohol-related symptoms
[2]
  cocaine-primed reinstatement: inhibited
  heroin-induced reinstatement: inhibited
[3]
  serious adverse effects: no serious adverse effects
  tolerability: well tolerated
[4]; Week 1
  PACS: 18.1429
[4]; Week 2
  PACS: 15.1500
[4]; Week 3
  PACS: 14.0000
[4]; Week 4
  PACS: 11.9474
[4]; Week 5
  PACS: 11.7778
[4]; Week 6
  PACS: 9.3529
[4]; Week 7
  PACS: 8.3333
[4]; Week 8
  PACS: 7.2667
[4]; Week 9
  PACS: 7.2000
[4]; during the trial, p=0.041
  alcohol craving by PACS compared to placebo: decreased alcohol craving
[5]
  treatment of pathological gambling: showed the efficacy
[6]; 8-week trial
  liver functions (AST, ALT, GGT liver function tests): improved liver functions
[6]; Week 0
  ALT: 36.67
  AST: 40.89
  GGT: 193.00
[6]; Week 5
  ALT: 33.06
  AST: 30.28
  GGT: 139.06
[6]; Week 9
  ALT: 29.13
  AST: 26.13
  GGT: 92.93
[7]; patients with uncontrollable cravings
  effect in voyeurism, exhibitionism and other sexual deviations: works dramatically
[7]; person, 2400-3600 mg/day added to naltrexone and topiramate
  hypersexual cravings and symptoms: ameliorated dramatically
[8]; Case 1, from 239 lbs, in 5 weeks, 2700-3600 mg per day
  weight: 225 lbs
[8]; Case 1, two months later, 3600 mg
  weight: 224 lbs
[8]; Case 2, from 295 lbs, in one month
  weight: 286 lbs
[8]; Case 3, 1200 mg
  time for food craving to subside after taking: ≤ 15 min
[8]; Case 3, start 220 lbs, two weeks, 1200 mg three times a day
  weight lost: 6 lbs
[8]; numerous test subjects
  food cravings and compulsive overeating: reduced food cravings and compulsive overeating
[9]
  shopping cravings and behaviors: stopped dramatically
[10]
  half-life: short half-life
[11]; Week 1
  Q-LES-Q: 50.4000
[11]; Week 2
  Q-LES-Q: 51.6390
[11]; Week 3
  Q-LES-Q: 53.8772
[11]; Week 4
  Q-LES-Q: 54.1789
[11]; Week 5
  Q-LES-Q: 57.7852
[11]; Week 6
  Q-LES-Q: 57.5529
[11]; Week 7
  Q-LES-Q: 58.1422
[11]; Week 8
  Q-LES-Q: 57.8000
[11]; Week 9
  Q-LES-Q: 58.7244
[11]; during the trial, p=0.017
  quality of life by Q-LES-Q compared to placebo: improved the quality of life
[12]; Week 1
  OCDS: 29.0000
[12]; Week 2
  OCDS: 24.9000
[12]; Week 3
  OCDS: 21.6316
[12]; Week 4
  OCDS: 20.3684
[12]; Week 5
  OCDS: 18.5556
[12]; Week 6
  OCDS: 16.0000
[12]; Week 7
  OCDS: 13.5333
[12]; Week 8
  OCDS: 13.4667
[12]; Week 9
  OCDS: 13.8000
[12]; during the trial, p=0.042
  alcohol craving by OCDS compared to placebo: decreased alcohol craving
[13]; double-blind placebo-controlled crossover trial
  cocaine use and craving: reduced cocaine use and craving
[13]; human, in vivo
  safety and tolerability: safe and well tolerated
[13]; open-label clinical study of cocaine-dependent patients
  cocaine use: significantly reduced cocaine use

## O=C1CC[C@@]2(O)[C@H]3Cc4ccc(O)c5c4[C@@]2(CCN3CC2CC2)[C@H]1O5 [naltrexone]
[7]; person
  hypersexual symptoms: only partially

## CC1(C)O[C@@H]2[C@@H](CO[C@@]3(COS(N)(=O)=O)OC(C)(C)O[C@@H]23)O1 [topiramate]
[7]; person
  hypersexual symptoms: only partially
